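Cells were grown in 96-well plates and exposed to each compound for 48 hours at five concentrations; endpoints were interpolated linearly between bracketing concentrations, or set to the highest concentration if not reached. Here, GI50 denotes the concentration required for 50% inhibition of growth.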 Calls of active or inactive are those of the source. Rule as the data show it: active = GI50 up to about 1.1 µM and inactive = higher.
Columns and labels:
Experiment in all cases: NCI anticancer screen, dose series, 48 h
786-0 = tested on: 786-0
A498 = tested on: A498
A549 = tested on: A549
ACHN = tested on: ACHN
BT-549 = tested on: BT-549
CAKI-1 = tested on: CAKI-1
CCRF-CEM = tested on: CCRF-CEM
COLO 205 = tested on: COLO 205
DU-145 = tested on: DU-145
EKVX = tested on: EKVX
HCC 2998 = tested on: HCC 2998
HCT-116 = tested on: HCT-116
HCT-15 = tested on: HCT-15
HL-60 = tested on: HL-60
HOP-62 = tested on: HOP-62
HOP-92 = tested on: HOP-92
HT-29 = tested on: HT-29
Hs-578T = tested on: Hs-578T
IGROV-1 = tested on: IGROV-1
K562 = tested on: K562
KM12 = tested on: KM12
LOX IMVI = tested on: LOX IMVI
M14 = tested on: M14
MCF7 = tested on: MCF7
MDA-MB-231 = tested on: MDA-MB-231
MDA-MB-435 = tested on: MDA-MB-435
MDA-N = tested on: MDA-N
MOLT-4 = tested on: MOLT-4
Malme-3M = tested on: Malme-3M
NCI-H226 = tested on: NCI-H226
NCI-H23 = tested on: NCI-H23
NCI-H460 = tested on: NCI-H460
NCI-H522 = tested on: NCI-H522
NCI/ADR-RES = tested on: NCI/ADR-RES
OVCAR-3 = tested on: OVCAR-3
OVCAR-4 = tested on: OVCAR-4
OVCAR-5 = tested on: OVCAR-5
OVCAR-8 = tested on: OVCAR-8
PC-3 = tested on: PC-3
RPMI-8226 = tested on: RPMI-8226
RXF 393 = tested on: RXF 393
SF-268 = tested on: SF-268
SF-295 = tested on: SF-295
SF-539 = tested on: SF-539
SK-MEL-28 = tested on: SK-MEL-28
SK-MEL-2 = tested on: SK-MEL-2
SK-MEL-5 = tested on: SK-MEL-5
SK-OV-3 = tested on: SK-OV-3
SN12C = tested on: SN12C
SNB-19 = tested on: SNB-19
SNB-75 = tested on: SNB-75
SR = tested on: SR
SW-620 = tested on: SW-620
T47D = tested on: T47D
TK-10 = tested on: TK-10
U-251 = tested on: U-251
UACC-257 = tested on: UACC-257
UACC-62 = tested on: UACC-62
UO-31 = tested on: UO-31

With `O=C1C(Cl)=C(Sc2nnc3c4ccccc4c4ccccc4c3n2)C(=O)c2ccccc21` the GI50 (786-0) was 16.4 µM (inactive), the GI50 (A498) was 20.3 µM (inactive) and the GI50 (A549) was 24.6 µM (inactive). For the same compound, the GI50 (ACHN) was 15.7 µM (inactive), the GI50 (BT-549) was 17.8 µM (inactive) and the GI50 (CAKI-1) was 17 µM (inactive). For the same compound, the GI50 (CCRF-CEM) was 3.78 µM (inactive), the GI50 (COLO 205) was 19.3 µM (inactive) and the GI50 (DU-145) was 8.81 µM (inactive). The GI50 (EKVX) was 17.6 µM (inactive), the GI50 (HCC 2998) was 32.4 µM (inactive) and the GI50 (HCT-116) was 16 µM (inactive). The GI50 (HCT-15) was 19 µM, the GI50 (HL-60) was 2.74 µM (inactive) and the GI50 (HOP-62) was 16.7 µM (inactive). For the same compound, the GI50 (HOP-92) was 16.9 µM (inactive), the GI50 (HT-29) was 25.1 µM (inactive) and the GI50 (Hs-578T) was 34.3 µM (inactive). For the same compound, the GI50 (IGROV-1) was 1.08 µM (active), the GI50 (K562) was 21.1 µM (inactive) and the GI50 (KM12) was 14.8 µM (inactive). For the same compound, the GI50 (LOX IMVI) was 4.57 µM (inactive), the GI50 (M14) was 15.2 µM (inactive) and the GI50 (MCF7) was 12.6 µM (inactive). The GI50 (MDA-MB-231) was 3.51 µM (inactive), the GI50 (MDA-MB-435) was 1.85 µM (inactive) and the GI50 (MDA-N) was 1.92 µM (inactive). The GI50 (MOLT-4) was 13.9 µM (inactive), the GI50 (Malme-3M) was 3.26 µM (inactive) and the GI50 (NCI-H226) was 19.3 µM (inactive). The GI50 (NCI-H23) was 5 µM (inactive), the GI50 (NCI-H460) was 17.8 µM (inactive) and the GI50 (NCI-H522) was 15.2 µM (inactive). For the same compound, the GI50 (NCI/ADR-RES) was 25.5 µM (inactive), the GI50 (OVCAR-3) was 14 µM (inactive) and the GI50 (OVCAR-4) was 14.7 µM (inactive). For the same compound, the GI50 (OVCAR-5) was 23.2 µM (inactive), the GI50 (OVCAR-8) was 8.47 µM (inactive) and the GI50 (PC-3) was 19 µM (inactive). The GI50 (RPMI-8226) was 13.7 µM (inactive), the GI50 (RXF 393) was 17.1 µM (inactive) and the GI50 (SF-268) was 27.5 µM (inactive). The GI50 (SF-295) was 10.8 µM (inactive), the GI50 (SF-539) was 16.1 µM (inactive) and the GI50 (SK-MEL-28) was 21.8 µM (inactive). The GI50 (SK-MEL-2) was 16.6 µM (inactive), the GI50 (SK-MEL-5) was 7.8 µM (inactive) and the GI50 (SK-OV-3) was 21.6 µM (inactive). The GI50 (SN12C) was 16.6 µM (inactive), the GI50 (SNB-19) was 18.7 µM (inactive) and the GI50 (SNB-75) was 2.97 µM (inactive). For the same compound, the GI50 (SR) was 7.43 µM (inactive), the GI50 (SW-620) was 23.1 µM (inactive) and the GI50 (T47D) was 6.24 µM (inactive). For the same compound, the GI50 (TK-10) was 22 µM (inactive), the GI50 (U-251) was 13.3 µM (inactive) and the GI50 (UACC-257) was 16.3 µM (inactive). The GI50 (UACC-62) was 15.8 µM (inactive) and the GI50 (UO-31) was 14.1 µM (inactive).
